Data reported in patent US6525001B1, “Substituted pyrimidine and pyridine herbicides” (Mid-American Commercialization Corporation, priority 1997, dated 2003).

Columns and labels:
Format in all cases: in vivo
Parameters in all cases: key: 0 is no effect; 10 is complete control
[1] = system: bedstraw (Galium aparine); assay: Test B pre-/postemergence
Outline: (§1)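 Seeds were planted and sprayed preemergence, while plants at 2 to 18 cm (1- to 4-leaf stage) were sprayed postemergence at the same time, with test chemical in a non-phytotoxic solvent mixture containing surfactant. After twelve to sixteen days in a greenhouse, injury was rated visually against untreated controls on a 0–10 scale.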

corn (Zea mays) = assay: Test B pre-/postemergence
Outline: as §1

[2] = system: crabgrass (Digitaria sanguinalis); assay: Test B pre-/postemergence
Outline: as §1

[3] = system: giant foxtail (Setaria faberii); assay: Test B pre-/postemergence
Outline: as §1

[4] = system: purple nutsedge (Cyperus rotundus); assay: Test B pre-/postemergence
Outline: as §1

rape (Brassica napus) = assay: Test B pre-/postemergence
Outline: as §1

soybean (Glycine max) = assay: Test B pre-/postemergence
Outline: as §1

[5] = system: sugar beet (Beta vulgaris); assay: Test B pre-/postemergence
Outline: as §1

[6] = system: velvetleaf (Abutilon theophrasti); assay: Test B pre-/postemergence
Outline: as §1

[7] = system: wheat (Triticum aestivum); assay: Test B pre-/postemergence
Outline: as §1

wild oat (Avena fatua) = assay: Test B pre-/postemergence
Outline: as §1

[8] = system: bamyardgrass (Echinochloa crus-galli); assay: Test B flood test
Outline: (§2)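 Plants were grown to the 2-leaf stage before treatment with test chemical, then held in a greenhouse for twelve to sixteen days. Injury was visually rated against untreated controls on a 0–10 scale, where 0 is no effect and 10 is complete control.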

[9] = system: duck salad (Heteranthera limosa); assay: Test B flood test
Outline: as §2

rice (Oryza sativa) = assay: Test B flood test
Outline: as §2

[10] = system: smallflower flatsedge (Cyperus difformis); assay: Test B flood test
Outline: as §2

[11] = Preemergence, Rate 62 g/ha, scale of 0 to 10
[12] = Rate 62 g/ha, Postemergence (flood test)
[13] = Rate 125 g/ha, Postemergence section (flood test species)
[14] = Rate 250 g/ha, Postemergence (flood test species)
[15] = Rate 125 g/ha, Postemergence, flood test

Cc1cnc(-c2ccc(C(F)(F)F)cc2)nc1C(=O)c1cccc(OC(F)(F)F)c1 [Compound 75]
2: Corn plant response rating (corn (Zea mays); Rate 62 g/ha, Postemergence) | Plant response rating, Corn (corn (Zea mays); Rate 500 g/ha, Preemergence) | Giant foxtail plant response rating ([3]; Rate 125 g/ha, Postemergence) | Plant response rating, Rape (rape (Brassica napus); [11]) | Plant response rating, Velvetleaf [6, 11] | Wheat plant response rating ([7]; Rate 62 g/ha, Postemergence) | Wheat plant response rating ([7]; Rate 125 g/ha, Postemergence) | Barnyardgrass plant response rating [8, 12] | Barnyardgrass plant response rating [8, 13] | Plant response rating, Ducksalad [9, 14]
5: Bedstraw plant response rating ([1]; Rate 62 g/ha, Postemergence) | Plant response rating, Giant foxtail ([3]; Rate 125 g/ha, Preemergence) | Plant response rating, Giant foxtail ([3]; Rate 250 g/ha, Preemergence) | Rape plant response rating (rape (Brassica napus); Rate 62 g/ha, Postemergence) | Plant response rating, Wheat ([7]; Rate 500 g/ha, Preemergence) | Plant response rating, Wild oats (wild oat (Avena fatua); [11])
0: Plant response rating, Corn (corn (Zea mays); [11]) | Plant response rating, Corn (corn (Zea mays); Rate 125 g/ha, Preemergence) | Plant response rating, Nutsedge [4, 11] | Nutsedge plant response rating ([4]; Rate 62 g/ha, Postemergence) | Nutsedge plant response rating ([4]; Rate 125 g/ha, Postemergence) | Plant response rating, Nutsedge ([4]; Rate 125 g/ha, Preemergence) | Plant response rating, Nutsedge ([4]; Rate 250 g/ha, Postemergence) | Plant response rating, Nutsedge ([4]; Rate 250 g/ha, Preemergence) | Plant response rating, Nutsedge ([4]; Rate 500 g/ha, Preemergence) | Plant response rating, Soybean (soybean (Glycine max); [11]) | Plant response rating, Soybean (soybean (Glycine max); Rate 125 g/ha, Preemergence) | Plant response rating, Soybean (soybean (Glycine max); Rate 250 g/ha, Preemergence) | Plant response rating, Wheat [7, 11] | Ducksalad plant response rating [9, 12] | S. Flatsedge plant response rating [10, 12] | S. Flatsedge plant response rating [10, 13]
9: Bedstraw plant response rating ([1]; Rate 125 g/ha, Postemergence) | Plant response rating, Bedstraw ([1]; Rate 250 g/ha, Postemergence) | Plant response rating, Crabgrass ([2]; Rate 125 g/ha, Preemergence) | Plant response rating, Crabgrass ([2]; Rate 250 g/ha, Preemergence) | Plant response rating, Giant foxtail ([3]; Rate 500 g/ha, Preemergence) | Plant response rating, Rape (rape (Brassica napus); Rate 250 g/ha, Postemergence) | Plant response rating, Sugarbeets [5, 11] | Velvetleaf plant response rating ([6]; Rate 125 g/ha, Postemergence) | Plant response rating, Velvetleaf ([6]; Rate 250 g/ha, Postemergence) | Plant response rating, Velvetleaf ([6]; Rate 250 g/ha, Preemergence) | Plant response rating, Wild oats (wild oat (Avena fatua); Rate 500 g/ha, Preemergence)
1: Plant response rating, Corn (corn (Zea mays); Rate 250 g/ha, Preemergence) | Plant response rating, Giant foxtail [3, 11] | Giant foxtail plant response rating ([3]; Rate 62 g/ha, Postemergence) | Plant response rating, Soybean (soybean (Glycine max); Rate 500 g/ha, Preemergence) | Ducksalad plant response rating [9, 13] | Rice plant response rating (rice (Oryza sativa); [12]) | Rice plant response rating (rice (Oryza sativa); [13]) | Plant response rating, Rice (rice (Oryza sativa); [14]) | Plant response rating, S. Flatsedge [10, 14]
3: Plant response rating, Bedstraw [1, 11] | Corn plant response rating (corn (Zea mays); Rate 125 g/ha, Postemergence) | Plant response rating, Corn (corn (Zea mays); Rate 250 g/ha, Postemergence) | Plant response rating, Rape (rape (Brassica napus); Rate 125 g/ha, Preemergence) | Soybean plant response rating (soybean (Glycine max); Rate 62 g/ha, Postemergence) | Soybean plant response rating (soybean (Glycine max); Rate 125 g/ha, Postemergence) | Plant response rating, Soybean (soybean (Glycine max); Rate 250 g/ha, Postemergence) | Plant response rating, Wheat ([7]; Rate 250 g/ha, Postemergence) | Wild oats plant response rating (wild oat (Avena fatua); Rate 62 g/ha, Postemergence) | Wild oats plant response rating (wild oat (Avena fatua); Rate 125 g/ha, Postemergence) | Plant response rating, Wild oats (wild oat (Avena fatua); Rate 250 g/ha, Postemergence) | Plant response rating, Barnyardgrass [8, 14]
10: Plant response rating, Crabgrass ([2]; Rate 500 g/ha, Preemergence) | Sugarbeets plant response rating ([5]; Rate 62 g/ha, Postemergence) | Sugarbeets plant response rating ([5]; Rate 125 g/ha, Postemergence) | Plant response rating, Sugarbeets ([5]; Rate 125 g/ha, Preemergence) | Plant response rating, Sugarbeets ([5]; Rate 250 g/ha, Postemergence) | Plant response rating, Sugarbeets ([5]; Rate 250 g/ha, Preemergence) | Plant response rating, Sugarbeets ([5]; Rate 500 g/ha, Preemergence) | Plant response rating, Velvetleaf ([6]; Rate 500 g/ha, Preemergence)
6: Plant response rating, Bedstraw ([1]; Rate 125 g/ha, Preemergence) | Plant response rating, Bedstraw ([1]; Rate 250 g/ha, Preemergence) | Plant response rating, Crabgrass [2, 11]
7: Rape plant response rating (rape (Brassica napus); Rate 125 g/ha, Postemergence) | Plant response rating, Wild oats (wild oat (Avena fatua); Rate 125 g/ha, Preemergence) | Plant response rating, Wild oats (wild oat (Avena fatua); Rate 250 g/ha, Preemergence)
4: Crabgrass plant response rating ([2]; Rate 125 g/ha, Postemergence) | Plant response rating, Giant foxtail ([3]; Rate 250 g/ha, Postemergence) | Plant response rating, Rape (rape (Brassica napus); Rate 250 g/ha, Preemergence) | Plant response rating, Rape (rape (Brassica napus); Rate 500 g/ha, Preemergence) | Plant response rating, Wheat ([7]; Rate 125 g/ha, Preemergence) | Plant response rating, Wheat ([7]; Rate 250 g/ha, Preemergence)
8: Plant response rating, Bedstraw ([1]; Rate 500 g/ha, Preemergence) | Velvetleaf plant response rating ([6]; Rate 62 g/ha, Postemergence) | Plant response rating, Velvetleaf ([6]; Rate 125 g/ha, Preemergence)

COc1cnc(-c2ccc(C(F)(F)F)cc2)nc1Cc1cccc(C(F)(F)F)c1 [Compound 23]
2: Plant response rating, Corn (corn (Zea mays); Rate 62 g/ha, Postemergence) | Plant response rating, Giant foxtail ([3]; Rate 62 g/ha, Postemergence) | Wheat plant response rating ([7]; Rate 62 g/ha, Preemergence) | Plant response rating, Ducksalad [9, 12]
1: Corn plant response rating (corn (Zea mays); Rate 125 g/ha, Preemergence) | Plant response rating, Corn (corn (Zea mays); Rate 250 g/ha, Preemergence) | Rape plant response rating (rape (Brassica napus); Rate 62 g/ha, Preemergence) | Soybean plant response rating (soybean (Glycine max); Rate 62 g/ha, Preemergence) | Soybean plant response rating (soybean (Glycine max); Rate 125 g/ha, Preemergence) | Plant response rating, Soybean (soybean (Glycine max); Rate 250 g/ha, Preemergence) | Velvetleaf plant response rating ([6]; Rate 62 g/ha, Preemergence)
8: Bedstraw plant response rating ([1]; Rate 125 g/ha, Preemergence) | Plant response rating, Soybean (soybean (Glycine max); Rate 62 g/ha, Postemergence) | Plant response rating, Soybean (soybean (Glycine max); Rate 125 g/ha, Postemergence) | Plant response rating, Soybean (soybean (Glycine max); Rate 250 g/ha, Postemergence) | Sugarbeets plant response rating ([5]; Rate 62 g/ha, Preemergence) | Sugarbeets plant response rating ([5]; Rate 125 g/ha, Preemergence) | Wild oats plant response rating (wild oat (Avena fatua); Rate 125 g/ha, Preemergence) | Plant response rating, S. Flatsedge [10, 15]
6: Plant response rating, Wheat ([7]; Rate 250 g/ha, Preemergence) | Plant response rating, Wild oats (wild oat (Avena fatua); Rate 125 g/ha, Postemergence) | Plant response rating, Barnyardgrass [8, 14] | Plant response rating, Ducksalad [9, 14]
7: Plant response rating, Crabgrass ([2]; Rate 62 g/ha, Postemergence) | Plant response rating, Rape (rape (Brassica napus); Rate 250 g/ha, Preemergence) | Wild oats plant response rating (wild oat (Avena fatua); Rate 62 g/ha, Preemergence)
4: Plant response rating, Wheat ([7]; Rate 125 g/ha, Postemergence) | Plant response rating, Barnyardgrass [8, 12] | Plant response rating, Ducksalad [9, 15] | Plant response rating, Rice (rice (Oryza sativa); [15]) | Plant response rating, S. Flatsedge [10, 12]
3: Plant response rating, Corn (corn (Zea mays); Rate 125 g/ha, Postemergence) | Plant response rating, Corn (corn (Zea mays); Rate 250 g/ha, Postemergence) | Rape plant response rating (rape (Brassica napus); Rate 125 g/ha, Preemergence) | Velvetleaf plant response rating ([6]; Rate 125 g/ha, Preemergence) | Plant response rating, Wheat ([7]; Rate 62 g/ha, Postemergence) | Wheat plant response rating ([7]; Rate 125 g/ha, Preemergence) | Plant response rating, Rice (rice (Oryza sativa); [12])
0: Corn plant response rating (corn (Zea mays); Rate 62 g/ha, Preemergence) | Plant response rating, Nutsedge ([4]; Rate 62 g/ha, Postemergence) | Plant response rating, Nutsedge ([4]; Rate 125 g/ha, Postemergence) | Nutsedge plant response rating ([4]; Rate 125 g/ha, Preemergence)
10: Crabgrass plant response rating ([2]; Rate 125 g/ha, Preemergence) | Plant response rating, Crabgrass ([2]; Rate 250 g/ha, Preemergence) | Giant foxtail plant response rating ([3]; Rate 62 g/ha, Preemergence) | Giant foxtail plant response rating ([3]; Rate 125 g/ha, Preemergence) | Plant response rating, Giant foxtail ([3]; Rate 250 g/ha, Preemergence) | Plant response rating, Rape (rape (Brassica napus); Rate 62 g/ha, Postemergence) | Plant response rating, Rape (rape (Brassica napus); Rate 125 g/ha, Postemergence) | Plant response rating, Rape (rape (Brassica napus); Rate 250 g/ha, Postemergence) | Plant response rating, Sugarbeets ([5]; Rate 62 g/ha, Postemergence) | Plant response rating, Sugarbeets ([5]; Rate 125 g/ha, Postemergence) | Plant response rating, Sugarbeets ([5]; Rate 250 g/ha, Postemergence) | Plant response rating, Sugarbeets ([5]; Rate 250 g/ha, Preemergence) | Plant response rating, Velvetleaf ([6]; Rate 250 g/ha, Preemergence)
5: Plant response rating, Giant foxtail ([3]; Rate 125 g/ha, Postemergence) | Plant response rating, Wheat ([7]; Rate 250 g/ha, Postemergence) | Plant response rating, Wild oats (wild oat (Avena fatua); Rate 62 g/ha, Postemergence) | Plant response rating, Barnyardgrass [8, 15] | Plant response rating, Rice (rice (Oryza sativa); [14])
9: Plant response rating, Bedstraw ([1]; Rate 62 g/ha, Postemergence) | Plant response rating, Bedstraw ([1]; Rate 125 g/ha, Postemergence) | Plant response rating, Bedstraw ([1]; Rate 250 g/ha, Postemergence) | Plant response rating, Bedstraw ([1]; Rate 250 g/ha, Preemergence) | Crabgrass plant response rating ([2]; Rate 62 g/ha, Preemergence) | Plant response rating, Crabgrass ([2]; Rate 125 g/ha, Postemergence) | Plant response rating, Crabgrass ([2]; Rate 250 g/ha, Postemergence) | Plant response rating, Giant foxtail ([3]; Rate 250 g/ha, Postemergence) | Plant response rating, Velvetleaf ([6]; Rate 62 g/ha, Postemergence) | Plant response rating, Velvetleaf ([6]; Rate 125 g/ha, Postemergence) | Plant response rating, Velvetleaf ([6]; Rate 250 g/ha, Postemergence) | Plant response rating, Wild oats (wild oat (Avena fatua); Rate 250 g/ha, Postemergence) | Plant response rating, Wild oats (wild oat (Avena fatua); Rate 250 g/ha, Preemergence) | Plant response rating, S. Flatsedge [10, 14]
